Experimental data: patent publication US20120238549A1, “Nuclear Hormone Receptor Modulators” (ABBOTT LABORATORIES, priority 2011, published 2012)

Target: T1, Glucocorticoid Receptor (GR) (Homo sapiens, UniProt P04150)
T1 construct: purchased Invitrogen P2893
T1 sequence (P04150 1-777): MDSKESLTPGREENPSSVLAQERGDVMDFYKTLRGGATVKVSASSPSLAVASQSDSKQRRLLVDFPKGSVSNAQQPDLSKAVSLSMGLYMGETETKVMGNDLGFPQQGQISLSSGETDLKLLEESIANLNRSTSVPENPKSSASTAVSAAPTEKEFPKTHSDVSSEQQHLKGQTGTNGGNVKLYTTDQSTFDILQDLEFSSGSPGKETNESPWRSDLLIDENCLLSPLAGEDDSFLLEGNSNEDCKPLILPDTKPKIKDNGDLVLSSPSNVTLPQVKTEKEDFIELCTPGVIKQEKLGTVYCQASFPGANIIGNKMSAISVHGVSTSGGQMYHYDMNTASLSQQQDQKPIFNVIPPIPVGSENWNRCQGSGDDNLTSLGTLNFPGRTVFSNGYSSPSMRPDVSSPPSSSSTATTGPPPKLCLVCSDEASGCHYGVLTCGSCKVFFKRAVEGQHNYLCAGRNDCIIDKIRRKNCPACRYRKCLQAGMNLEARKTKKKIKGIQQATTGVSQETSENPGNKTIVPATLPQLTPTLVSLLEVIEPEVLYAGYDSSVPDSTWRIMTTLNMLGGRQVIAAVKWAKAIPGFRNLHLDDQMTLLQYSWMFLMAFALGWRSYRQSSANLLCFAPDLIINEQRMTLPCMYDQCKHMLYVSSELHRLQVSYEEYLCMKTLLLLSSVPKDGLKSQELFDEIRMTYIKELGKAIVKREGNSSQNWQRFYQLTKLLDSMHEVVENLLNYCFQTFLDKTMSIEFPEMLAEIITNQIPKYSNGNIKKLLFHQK
Assay: GR Florescence Polarization Assay (PolarScreen Glucocorticoid Receptor Competitor Assay, Red)
Details: Fluorescense polarization binding ranges; competition with fluorescent glucocorticoid, incubated overnight at 4° C.
Method: GR Florescence Polarization Assay Florescence polarization assays were carried out using the PolarScreen™ Glucocorticoid Receptor Competitor Assay, Red from Invitrogen (P2893). The assay buffer was prepared according to the manufacturer's protocol and used to dilute the fluorescent glucocorticoid and GR. Compounds were prepared and serial diluted 1:4 in DMSO. Compound, fluorescent glucocorticoid and GR were added in a final volume of 20 μL and incubated overnight at 4° C. Fluorescent polarization was measured on the Perkinelmer Envision®.

Row | Compound | IC50 [µM]
1 | CCOC[C@@]1(O)CC[C@@]2(Cc3ccccc3)c3ccc(C(=O)Nc4cccnc4C)cc3CCC[C@H]2C1 (racemic) [Example 33, (7aS,9R,11aS)-11a-Benzyl-9-ethoxymethyl-9-hydroxy-6,7,7a,8,9,10,11,11a-octahydro-5H-dibenzo[a,c]cycloheptene-3-carboxylic acid (2-methyl-pyridin-3-yl)-amide; compound with (7aR,9S,11aR)-11a-benzyl-9-ethoxymethyl-9-hydroxy-6,7,7a,8,9,10,11,11a-octahydro-5H-dibenzo[a,c]cycloheptene-3-carboxylic acid (2-methyl-pyridin-3-yl)-amide] | < 0.1
2 | O=C1CCCC[C@H]2CC3(CC[C@@]12Cc1ccccc1)OCCO3 (racemic) [Example 37, (4aS,9aS)-4a-benzyloctahydrospiro[benzo[7]annulene-2,2′-[1,3]dioxolan]-5(1H)-one; compound with (4aR,9aR)-4a-benzyloctahydrospiro[benzo[7]annulene-2,2′-[1,3]dioxolan]-5(1H)-one] | > 10
3 | Oc1ccc2c(c1)CCC[C@H]1C[C@@](O)(c3ccccc3)[C@H](O)C[C@@]21Cc1ccccc1 (racemic) [Example 42, (2R,3R,4aS,11bR)-11b-Benzyl-3-phenyl-2,3,4,4a,5,6,7,11b-octahydro-1H-dibenzo[a,c]cycloheptene-2,3,9-triol compound with (2S,3S,4aR,11bS)-11b-benzyl-3-phenyl-2,3,4,4a,5,6,7,11b-octahydro-1H-dibenzo[a,c]cycloheptene-2,3,9-triol] | 0.1 to 1
4 | CCC[C@@]1(O)CC[C@@]2(CC(F)(F)F)c3ccc(C(=O)Nc4cccnc4C)cc3CCC[C@H]2C1 (racemic) [Example 52] | < 0.1
5 | Cc1ncccc1NC(=O)c1ccc2c(c1)CCC[C@H]1C[C@@](O)(CC(C)C)CC[C@@]21CC(F)(F)F (racemic) [Example 63, (7aS,9S,11aS)-9-Hydroxy-9-isobutyl-11a-(2,2,2-trifluoro-ethyl)-6,7,7a,8,9,10,11,11a-octahydro-5H-dibenzo[a,c]cycloheptene-3-carboxylic acid (2-methyl-pyridin-3-yl)-amide; compound with (7aR,9R,11aR)-9-hydroxy-9-isobutyl-11a-(2,2,2-trifluoro-ethyl)-6,7,7a,8,9,10,11,11a-octahydro-5H-dibenzo[a,c]cycloheptene-3-carboxylic acid (2-methyl-pyridin-3-yl)-amide] | < 0.1
6 | CC[C@@]12CC[C@](O)(CC#N)C[C@@H]1CCCc1cc(C(=O)Nc3cccnc3C)ccc12 (racemic) [Example 64, (7aS,9R,11aR)-9-Cyanomethyl-11a-ethyl-9-hydroxy-6,7,7a,8,9,10,11,11a-octahydro-5H-dibenzo[a,c]cycloheptene-3-carboxylic acid (2-methyl-pyridin-3-yl)-amide; compound with (7aR,9S,11aS)-9-cyanomethyl-11a-ethyl-9-hydroxy-6,7,7a,8,9,10,11,11a-octahydro-5H-dibenzo[a,c]cyclo heptene-3-carboxylic acid (2-methyl-pyridin-3-yl)-amide] | 0.1 to 1
7 | Cc1ncccc1NC(=O)c1ccc2c(c1)CCC[C@H]1C[C@@](O)(CC#N)CC[C@@]21Cc1ccccc1 (racemic) [Example 65] | < 0.1
8 | CC[C@@]12CC[C@](O)(COCC(F)(F)F)C[C@@H]1CCCc1cc(C(=O)Nc3cccnc3C)ccc12 (racemic) [Example 92, (7aS,9R,11aR)-11a-ethyl-9-hydroxy-9-(2,2,2-trifluoro-ethoxymethyl)-6,7,7a,8,9,10,11,11a-octahydro-5H-dibenzo[a,c]cycloheptene-3-carboxylic acid (2-methyl-pyridin-3-yl)-amide: compound with (7aR,9S,11aS)-11a-ethyl-9-hydroxy-9-(2,2,2-trifluoro-ethoxymethyl)-6,7,7a,8,9,10,11,11a-octahydro-5H-dibenzo[a,c]cycloheptene-3-carboxylic acid (2-methyl-pyridin-3-yl)-amide] | < 0.1
9 | Cc1ncccc1NC(=O)c1ccc2c(c1)CCC[C@H]1C[C@@](O)(COCC(F)(F)F)CC[C@@]21Cc1ccccc1 (racemic) [Example 95] | < 0.1
10 | Cc1ncccc1NC(=O)c1ccc2c(c1)CCC[C@H]1C[C@@](O)(COC3COC3)CC[C@@]21Cc1ccccc1 (racemic) [Example 96] | < 0.1
11 | Cc1ncccc1NC(=O)c1ccc2c(c1)CCC[C@H]1C[C@@](O)(COC(C)C)CC[C@@]21Cc1ccccc1 (racemic) [Example 97] | < 0.1
12 | CCCOC[C@@]1(O)CC[C@@]2(Cc3ccccc3)c3ccc(C(=O)Nc4cccnc4C)cc3CCC[C@H]2C1 (racemic) [Example 101] | < 0.1
13 | Cc1ncccc1NC(=O)c1ccc2c(c1)CCC[C@H]1C[C@@](O)(COC3CCOCC3)CC[C@@]21Cc1ccccc1 (racemic) [Example 102] | < 0.1
14 | Cc1ncccc1NC(=O)c1ccc2c(c1)CCC[C@H]1C[C@@](O)(COc3ccccc3)CC[C@@]21Cc1ccccc1 (racemic) [Example 103] | < 0.1
15 | Cc1ncccc1NC(=O)c1ccc2c(c1)CCC[C@H]1C[C@@](O)(CO)CC[C@@]21Cc1ccccc1 (racemic) [Example 104] | 0.1 to 1
16 | Cc1ncccc1NC(=O)c1ccc2c(c1)CCC[C@H]1C[C@@](O)(COCCS(C)(=O)=O)CC[C@@]21Cc1ccccc1 (racemic) [Example 105] | < 0.1
17 | CCC[C@@]1(O)CC[C@@]2(CC)c3ccc(C(=O)Nc4cccnc4C)cc3OCC[C@H]2C1 (racemic) [Example 119, (7aS,9R,11aR)-11a-Ethyl-9-hydroxy-N-(2-methylpyridin-3-yl)-9-propyl-6,7,7a,8,9,10,11,11a-octahydrodibenzo[b,d]oxepine-3-carboxamide; compound with (7aR,9S,11aS)-11a-ethyl-9-hydroxy-N-(2-methylpyridin-3-yl)-9-propyl-6,7,7a,8,9,10,11,11a-octahydrodibenzo[b,d]oxepine-3-carboxamide] | < 0.1
18 | CCC[C@@]1(O)CC[C@@]2(CC)c3ccc(C(=O)Nc4cccnc4C)cc3C=CC[C@H]2C1 (racemic) [Example 128, (7aS,9R,11aR)-11a-Ethyl-9-hydroxy-9-propyl-7a,8,9,10,11,11a-hexahydro-7H-dibenzo[a,c]cycloheptene-3-carboxylic acid (2-methyl-pyridin-3-yl)-amide compound with (7aR,9S,11aS)-11a-ethyl-9-hydroxy-9-propyl-7a,8,9,10,11,11a-hexahydro-7H-dibenzo[a,c]cycloheptene-3-carboxylic acid (2-methyl-pyridin-3-yl)-amide] | < 0.1
19 | CC[C@@]12CC[C@](O)(c3ccccc3)C[C@@H]1CCOc1cc(C(=O)Nc3cccnc3C)ccc12 (racemic) [Example 134, (7aS,9R,11aR)-11a-Ethyl-9-hydroxy-N-(2-methylpyridin-3-yl)-9-phenyl-6,7,7a,8,9,10,11,11a-octahydrodibenzo[b,d]oxepine-3-carboxamide; compound with (7aR,9S,11aS)-11a-ethyl-9-hydroxy-N-(2-methylpyridin-3-yl)-9-phenyl-6,7,7a,8,9,10,11,11a-octahydrodibenzo[b,d]oxepine-3-carboxamide] | < 0.1
